Test results: a melting point compilation (Tetko et al.; mined from patent text by program, amines drawn as free bases though some values may be those of a salt)

Compared with `COC(=O)c1cc2n(c1)CCCC2`, `COC(=O)c1ccc(C(C)(C)NC(C)=O)cc1` is higher in melting point: 72 to 74 °C for the first, 165 to 167 °C for the second.

Compared with `N#CC(C#N)=C(NCC(=O)O)Nc1cc(Cl)cc(Cl)c1`, `O=C(O)Cc1cccc(Oc2cccc(Cl)c2)c1O` is lower in melting point: 103 °C for the first, 99 to 102 °C for the second.

First: COCCNCc1cccc(OCCCNc2nc(N)nn2C)c1
Second: CCCNc1cc(=O)[nH]c(-c2ccccc2OCCC)n1
The melting point of the first is lower: 61 to 62.5 °C for the first, 172 to 173 °C for the second.

First: CCc1ccc2c(-c3ccccc3)onc2c1
Second: O=C(O)c1cc([N+](=O)[O-])cc2c1Nc1cc(-c3ccccc3)ccc1O2
The melting point of the first is lower: 41 to 43 °C for the first, greater than 250 °C for the second.

First: CCCCOC(=O)[C@H]1CN(c2ccc(N3CCSCC3)cc2)C(=O)O1
Second: O=C1CCC(N2Cc3c(OCc4ccccc4CN4CCOCC4)cccc3C2=O)C(=O)N1 (stereo not given)
The melting point of the first is lower: 95.5 to 98 °C for the first, 188 to 190 °C for the second.

First: CCCCNc1n[nH]c2c1c(=O)n(CCC)c1ccccc21
Second: CN(C)CCNc1ccc2c3c(nn2C)-c2ccncc2C(=O)c13
The melting point of the first is lower: 169 to 172 °C for the first, 212 to 216 °C for the second.

First: CC(C)(C)c1cc(CN=[N+]=[N-])nn1-c1ccc(S(C)(=O)=O)cc1
Second: COc1ccc(C(=O)Nc2ccc(-n3nc(C(F)(F)F)cc3C(F)(F)F)cc2)c(Cl)c1
The melting point of the first is lower: 115 to 117 °C for the first, 140 to 143 °C for the second.

First: COc1ccc(CCn2cnc3oc(C)c(C)c3c2=N)cc1
Second: COc1ccc2c(c1)C(=O)c1c-2nc2ccccc2c1Cl
The melting point of the first is lower: 125 °C for the first, 216 to 218 °C for the second.

First: Nc1ncc2c(n1)CCC(NC(=O)[C@@H]1CCCN1C(=O)[C@@H](CC1CCCCC1)NS(=O)(=O)Cc1ccccc1)C2 (stereo not given in full)
Second: CC(C)CC(SCC1CCCCC1)c1c(O)cc(-c2ccccc2)oc1=O (stereo not given)
The melting point of the first is lower: 114 to 117 °C for the first, 146 to 148 °C for the second.

Compared with `CC(C)(C)c1cc(-c2nn(Cc3cccc(C(F)(F)F)c3)c3ncccc23)cc(C(C)(C)C)c1O`, `CC(C)(C)c1cc(C=C2OC(NC(=N)N)=NC2=O)cc(C(C)(C)C)c1O` is higher in melting point: 160 to 163 °C for the first, 258 °C for the second.

Compared with `O=C(CC(=O)c1cccc(C(F)(F)F)c1NC(=O)CCl)Nc1nccs1`, `Cc1ccc(C(=O)c2cccnc2C(=O)O)cc1` is lower in melting point: 192 °C for the first, 168 to 170 °C for the second.

Compared with `CCOCc1nc2c(N)nc(C)c(C)c2n1CCC1CCN(Cc2ccccc2)CC1`, `O=C1Nc2ncccc2CN1C1CCN(Cc2ccccc2)CC1` is higher in melting point: 165 to 167 °C for the first, 187 °C for the second.

First: C=C(c1ccccc1)c1cccc(C(C)C(=O)OC)c1 (stereo not given)
Second: O=C(Cc1ccccc1)c1ccc(OCc2ccccc2)cc1O
The melting point of the first is lower: 69 to 71 °C for the first, 106 to 108 °C for the second.

Compared with `CNS(=O)(=O)c1cccc(NC(=O)c2cnn3c(C(F)(F)F)cc(-c4ccc(C(F)(F)F)cc4)nc23)c1`, `O=C(c1cc(Cl)ccc1NC(c1ccccc1)(c1ccccc1)c1ccccc1)C(F)(F)F` is lower in melting point: 232 °C for the first, 165 to 167 °C for the second.

First: COC(=O)c1cc(N2CCNC2=O)c2cc(Cc3ccc(F)cc3)cnc2c1O
Second: CC(=O)n1c(=O)n(-c2ccc3c(c2)OCO3)c2ncccc21
The melting point of the first is higher: 248 to 250 °C for the first, 211 to 212 °C for the second.

First: COC(=O)/C=C/c1ccc2c(c1)C(C)(C)CC(=O)N2
Second: COC(=O)c1ccc(S(C)(=O)=O)c(C=O)c1Cl
The melting point of the first is higher: 174 to 175 °C for the first, 98 to 105 °C for the second.

First: CC(=O)OCc1cc2cc(OCc3ccccc3)ccc2n1Cc1ccc(C(C)(C)C)cc1
Second: COC(=O)C(Oc1ccc(C(C)(C)C)cc1)c1ccc(Sc2ccc(Cl)cc2)cc1 (stereo not given)
The melting point of the first is higher: 132 to 133 °C for the first, 106 to 108 °C for the second.

First: N#Cc1ccc(C=Cc2cc(=O)c3cc(Br)ccc3o2)cc1
Second: CCOc1ccc2[nH]c(=O)n(-c3ccc(C(C)C)cc3)c2c1
The melting point of the first is higher: 275 to 276 °C for the first, 100 °C for the second.

First: O=C(NOCC(O)CO)c1ccc(F)c(F)c1Nc1ccc(I)cc1F (stereo not given)
Second: O=C1NCCc2c(-c3ccc(Cl)c(C(F)(F)F)c3)[nH]c3cccc1c23
The melting point of the first is lower: 117 to 118 °C for the first, 118 to 119 °C for the second.

First: CS(=O)(=O)NC(c1ccc(Cl)c2nc3n(c12)CCCN3c1c(Cl)cc(Cl)cc1Cl)C(F)(F)F (stereo not given)
Second: CC(C)(N)c1ccc(-c2nc(Nc3ccc(CCN4CCOCC4)cc3)ncc2Cl)cc1
The melting point of the first is higher: 290 to 291 °C for the first, 166 to 173 °C for the second.

First: Cc1ccc([N+](=O)[O-])cc1COCC(F)(F)C(F)(F)F
Second: Cn1cc([N+](=O)[O-])cc1CO
The melting point of the first is lower: 53.5 to 54.5 °C for the first, 89 to 90 °C for the second.

First: O=C(O)c1ccc(CCc2ccc(NC(=O)C3CSc4ccccc4C3=O)cc2)cc1 (stereo not given)
Second: COc1cc(C=C(C=O)C(C=O)=Cc2ccc(OC(=O)c3ccccc3)c(OC)c2)ccc1OC(=O)c1ccccc1
The melting point of the first is higher: 256 to 259 °C for the first, 107 to 110 °C for the second.

First: C=CCc1cc2c(c(CC=C)c1O)NC(=O)CC2
Second: NC1=CC2=C(CC1)CCc1c2[nH]c(=O)c(=O)n1Cc1ccccc1
The melting point of the first is lower: 86 to 88 °C for the first, 290 °C for the second.

First: O=P(c1ccccc1)(c1ccccc1)C(O)C(O)P(=O)(c1ccccc1)c1ccccc1 (stereo not given)
Second: COC1=CC(=O)N(Cc2ncn(C(c3ccccc3)(c3ccccc3)c3ccccc3)c2C)CC1
The melting point of the first is higher: 211 to 214 °C for the first, 181 to 184 °C for the second.

Compared with `N#Cc1cnc(-c2ccncc2)nc1N`, `N#CNC(=N)CCc1ccccc1Sc1ccccc1CCC(=N)NC#N` is lower in melting point: 253 to 255 °C for the first, 188 to 190 °C for the second.
